Where two headings read alike, the source gives them in different places.
Key:
[1] = biological target: DNA-PK (Homo sapiens (Human), UniProt P78527); assay: DNA-PK assay (biochemical), flashplate 33P-ATP kinase assay
Method in brief: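 Radiometric kinase reaction in streptavidin-coated flashplates, stopped with 200 mM EDTA, then 30 min room-temperature incubation and saline washes.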

[2] = biological target: DNA-PK phosphorylation at serine 2056 (Homo sapiens (Human), UniProt P78527); assay: DNA-PK phosphorylation at serine 2056 (cellular), bleomycin-treated HCT116 cells, ELISA; assay type: cell-based; settings: HCT116 cells, read-out: IC50 pDNA-PK
Method in brief: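 Chemiluminescent ELISA read-out; phospho-specific signal normalised to total DNA-PKcs. Cells (HCT116) exposed 6 h to test compound plus 10 μM bleomycin to induce double-strand breaks; DMSO control served as blank.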

[3] = biological target: Kv11.1 (hERG) (Homo sapiens (Human), UniProt Q12809); assay: Kv11.1 (hERG) ion channel activity (patch clamp assay), HEK293 cells transfected with hERG gene
Sequence of Kv11.1 (hERG) (Q12809 whole entry): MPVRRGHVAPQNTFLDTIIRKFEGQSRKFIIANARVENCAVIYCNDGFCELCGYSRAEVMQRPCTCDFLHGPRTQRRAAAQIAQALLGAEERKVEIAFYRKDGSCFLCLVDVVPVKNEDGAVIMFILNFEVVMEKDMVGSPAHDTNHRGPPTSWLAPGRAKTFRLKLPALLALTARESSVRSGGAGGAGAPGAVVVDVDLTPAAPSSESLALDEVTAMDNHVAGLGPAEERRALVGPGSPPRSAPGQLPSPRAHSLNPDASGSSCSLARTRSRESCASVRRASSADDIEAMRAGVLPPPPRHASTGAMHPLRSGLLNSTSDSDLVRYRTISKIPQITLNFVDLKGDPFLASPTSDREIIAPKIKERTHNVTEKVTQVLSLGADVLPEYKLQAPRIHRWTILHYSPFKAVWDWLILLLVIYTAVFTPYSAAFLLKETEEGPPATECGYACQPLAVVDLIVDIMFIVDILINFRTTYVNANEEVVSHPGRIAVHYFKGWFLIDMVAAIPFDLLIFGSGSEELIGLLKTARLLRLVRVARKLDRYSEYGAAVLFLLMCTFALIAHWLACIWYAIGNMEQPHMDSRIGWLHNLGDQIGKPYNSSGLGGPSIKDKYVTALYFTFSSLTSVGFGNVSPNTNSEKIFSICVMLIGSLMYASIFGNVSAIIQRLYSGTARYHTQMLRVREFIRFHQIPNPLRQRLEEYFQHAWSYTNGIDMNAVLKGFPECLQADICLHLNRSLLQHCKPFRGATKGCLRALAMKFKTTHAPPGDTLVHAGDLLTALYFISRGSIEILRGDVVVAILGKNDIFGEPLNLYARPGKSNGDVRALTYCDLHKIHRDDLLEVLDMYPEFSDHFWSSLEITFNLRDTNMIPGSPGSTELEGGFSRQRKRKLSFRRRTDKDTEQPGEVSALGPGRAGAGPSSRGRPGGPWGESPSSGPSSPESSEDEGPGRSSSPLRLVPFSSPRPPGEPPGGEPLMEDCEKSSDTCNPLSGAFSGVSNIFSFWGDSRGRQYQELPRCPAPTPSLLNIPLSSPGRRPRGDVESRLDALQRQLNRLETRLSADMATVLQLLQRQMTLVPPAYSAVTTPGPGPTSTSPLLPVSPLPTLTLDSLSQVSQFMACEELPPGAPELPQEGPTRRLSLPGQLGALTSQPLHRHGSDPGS

[4] = read-out: Ki [Kv1.11 hERG], Table 5
[5] = cellular, 10 μM bleomycin, six hours
[6] = Ki [Kv1.11 hERG], patch clamp, HEK293 transfected with hERG gene
[7] = read-out: Ki [Kv1.11 hERG], patch clamp, HEK293 transfected with hERG gene

Row | SMILES | IC50 ([1]; Table 5) | IC50 ([2]; Table 5) | Ki [3, 4] | also measured
1 | COC(c1ccc(F)c(-c2ncnc3cc(N4CCOCC4)ccc23)c1)c1nccs1 (stereo not drawn) [Example 177, 4-[2-Fluoro-5-(-methoxythiazol-2-ylmethyl)phenyl]-7-morpholin-4-yl-quinazoline] | 0.003 to 0.007 µM | 10 to 30 µM | > 25 µM | 
2 | Cc1csc(C(O)c2cc(-c3ncnc4cc(N5CCOCC5)ccc34)c(F)cc2Cl)n1 (stereo not drawn) [Example 181, [2-Chloro-4-fluoro-5-(7-morpholin-4-yl-quinazolin-4-yl)-phenyl]-(4-methyl-thiazol-2-yl)-methanol] | < 0.003 µM | 0.5 to 5 µM | < 10 µM | 
3 | OCc1csc([C@@H](O)c2cc(-c3ncnc4cc(N5CCOCC5)ccc34)c(F)cc2Cl)n1 [Example 185, (S)-[2-Chloro-4-fluoro-5-(7-morpholin-4-yl-quinazolin-4-yl)-phenyl]-(4-hydroxymethyl-thiazol-2-yl)-methanol] | < 0.003 µM | 0.5 to 5 µM | > 25 µM | 
4 | OCc1csc([C@H](O)c2cc(-c3ncnc4cc(N5CCOCC5)ccc34)c(F)cc2Cl)n1 [Example 186, (R)-[2-Chloro-4-fluoro-5-(7-morpholin-4-yl-quinazolin-4-yl)-phenyl]-(4-hydroxymethyl-thiazol-2-yl)-methanol] | 0.007 to 0.03 µM | 5 to 10 µM | < 10 µM | 
5 | OC(c1cnc(F)c(-c2ncnc3cc(N4CCOCC4)ccc23)c1)c1nccs1 (stereo not drawn) [Example 188, [6-Fluoro-5-(7-morpholin-4-yl-quinazolin-4-yl)-pyridin-3-yl]thiazol-2-ylmethanol] | < 0.003 µM | 5 to 10 µM | > 25 µM | 
6 | OC(c1cnc(F)c(-c2ncnc3cc(N4CCOCC4)ccc23)c1)c1nccs1 (stereo not drawn) [Example 189, [6-Fluoro-5-(7-morpholin-4-yl-quinazolin-4-yl)-pyridin-3-yl]thiazol-2-ylmethanol] | 0.003 to 0.007 µM | 0.5 to 5 µM |  | Ki ([3]; Ki [Kv1.11 hERG], Table 5): 15 to 25 µM
7 | CC(O)c1csc(C(O)c2cc(-c3ncnc4cc(N5CCOCC5)ccc34)c(F)cc2Cl)n1 (stereo not drawn) [Example 201, 1-(2-{[2-Chloro-4-fluoro-5-(7-morpholin-4-yl-quinazolin-4-yl)-phenyl]hydroxy-methyl}thiazol-4-yl)-ethanol] | 0.003 to 0.007 µM | 0.5 to 5 µM |  | Ki ([3]; Ki [Kv1.11 hERG], Table 5): 15 to 25 µM
8 | CCn1cc(C(O)c2cc(-c3ncnc4cc(N5CCOCC5)ccc34)c(F)cc2Cl)cn1 (stereo not drawn) [Example 202, [2-Chloro-4-fluoro-5-(7-morpholin-4-ylquinazolin-4-yl)-phenyl]-(1-ethyl-1H-pyrazol-4-yl)-methanol] | 0.007 to 0.03 µM | 0.5 to 5 µM |  | Ki ([3]; Ki [Kv1.11 hERG], Table 5): 15 to 25 µM
9 | Cc1nc([C@H](O)c2cnc(F)c(-c3ncnc4cc(N5CCOCC5)ncc34)c2)sc1C [Example 204, (R)-(4,5-Dimethyl-thiazol-2-yl)-[6-fluoro-5-(7-morpholin-4-yl-pyrido[4,3-d}-pyrimidin-4-yl)-pyridin-3-yl]-methanol] | > 0.03 µM | 10 to 30 µM |  | Ki ([3]; Ki [Kv1.11 hERG], Table 5): 10 to 15 µM
10 | Cc1cc(F)c(-c2ncnc3cc(N4CCOCC4)ccc23)cc1C(O)c1nccs1 (stereo not drawn) [Example 207, [4-Fluoro-2-methyl-5-(7-morpholinylquinazolin-4-yl)phenyl]thiazol-2-ylmethanol] |  |  |  | IC50 ([1]; enzymatic, 5 μM ATP): < 0.003 µM; IC50 [2, 5]: 0.5 to 5 µM; Ki [3, 6]: 15 to 25 µM
11 | C#Cc1nc(-c2cc(C(O)c3nccs3)ccc2F)c2ccc(N3CCOCC3)cc2n1 (stereo not drawn) [Example 208, [3-(2-Ethynyl-7-morpholinylquinazolin-4-yl)-4-fluorophenyl]thiazol-2-ylmethanol] |  |  |  | IC50 ([1]; enzymatic, 5 μM ATP): 0.003 to 0.007 µM; IC50 [2, 5]: 0.5 to 5 µM; Ki [3, 7]: < 10 µM
12 | Cc1cc(F)c(-c2ncnc3cc(N4CCOCC4)ccc23)cc1C(O)c1nccs1 (stereo not drawn) [Example 209, [4-Fluoro-2-methyl-5-(7-morpholin-4-yl-quinazolin-4-yl)-phenyl]thiazol-2-ylmethanol] |  |  |  | IC50 ([1]; enzymatic, 5 μM ATP): > 0.03 µM; IC50 [2, 5]: 10 to 30 µM; Ki [3, 7]: > 25 µM
13 | Cc1cc(F)c(-c2ncnc3cc(N4CCOCC4)ccc23)cc1C(O)c1nccs1 (stereo not drawn) [Example 210, [4-Fluoro-2-methyl-5-(7-morpholin-4-yl-quinazolin-4-yl)-phenyl]thiazol-2-ylmethanol] |  |  |  | IC50 ([1]; enzymatic, 5 μM ATP): 0.003 to 0.007 µM; IC50 [2, 5]: 0.5 to 5 µM; Ki [3, 7]: > 25 µM
14 | OC(c1ccc(F)c(-c2ncnc3cc(N4CCOCC4)ccc23)c1)c1nccs1 (stereo not drawn) [Example 211, [4-Fluoro-3-(7-morpholin-4-yl-quinazolin-4-yl)-phenyl]thiazol-2-ylmethanol] |  |  |  | IC50 ([1]; enzymatic, 5 μM ATP): 0.003 to 0.007 µM; IC50 [2, 5]: 0.5 to 5 µM; Ki [3, 7]: > 25 µM
15 | C#Cc1nc(-c2cc(C(O)c3nccs3)ccc2F)c2ccc(N3CCOCC3)cc2n1 (stereo not drawn) [Example 215, [3-(2-Ethynyl-7-morpholin-4-yl-quinazolin-4-yl)-4-fluorophenyl]-thiazol-2-yl-methanol] |  |  |  | IC50 ([1]; enzymatic, 5 μM ATP): < 0.003 µM; IC50 [2, 5]: 5 to 10 µM; Ki [3, 7]: < 10 µM
16 | C#Cc1nc(-c2cc(C(O)c3nccs3)ccc2F)c2ccc(N3CCOCC3)cc2n1 (stereo not drawn) [Example 216, [3-(2-Ethynyl-7-morpholin-4-yl-quinazolin-4-yl)-4-fluorophenyl]-thiazol-2-yl-methanol] |  |  |  | IC50 ([1]; enzymatic, 5 μM ATP): < 0.003 µM; IC50 [2, 5]: 10 to 30 µM; Ki [3, 6]: 10 to 15 µM
17 | OC(c1cccnc1)c1cc(-c2ncnc3cc(N4CCOCC4)ccc23)c(F)cc1F (stereo not drawn) [Example 217, [2,4-Difluoro-5-(7-morpholin-4-ylquinazolin-4-yl)phenyl]pyridin-3-ylmethanol] |  |  |  | IC50 ([1]; Table 7): 0.003 to 0.007 µM; IC50 ([2]; Table 7): < 0.5 µM; Ki ([3]; read-out: Ki [Kv1.11 hERG], Table 7): > 25 µM
18 | OC(c1ccccn1)c1cc(-c2ncnc3cc(N4CCOCC4)ccc23)c(F)cc1F (stereo not drawn) [Example 218, [2,4-Difluoro-5-(7-morpholin-4-yl-quinazolin-4-yl)-phenyl]pyridin-2-yl-methanol] |  |  |  | IC50 ([1]; Table 7): 0.003 to 0.007 µM; IC50 ([2]; Table 7): < 0.5 µM; Ki ([3]; Ki [Kv1.11 hERG], Table 7): 15 to 25 µM

Second part, led by results:

Row | IC50 ([1]; Table 5) | IC50 ([2]; Table 5) | SMILES | Ki [3, 4] | also measured
19 | < 0.003 µM | 5 to 10 µM | OC(c1cccc(-c2ncnc3cc(N4CCOCC4)ccc23)c1)(c1nccs1)C(F)(F)F (stereo not drawn) [Example 173, 2,2,2-Trifluoro-1-[3-(7-morpholin-4-yl-quinazolin-4-yl)-phenyl)-1-thiazol-2-ylethanol] | < 10 µM | 
20 | < 0.003 µM | 0.5 to 5 µM | OC(c1cc(F)c(F)c(-c2ncnc3cc(N4CCOCC4)ccc23)c1)c1nccs1 (stereo not drawn) [Example 178, [3,4-Difluoro-5-(7-morpholin-4-yl-quinazolin-4-yl)-phenyl)thiazol-2-yl-methanol] | > 25 µM | 
21 | 0.003 to 0.007 µM | 0.5 to 5 µM | OC(c1cc(F)c(F)c(-c2ncnc3cc(N4CCOCC4)ccc23)c1)c1nccs1 (stereo not drawn) [Example 179, [3,4-Difluoro-5-(7-morpholin-4-yl-quinazolin-4-yl)-phenyl]thiazol-2-yl-methanol] | < 10 µM | 
22 | < 0.003 µM | 5 to 10 µM | OC(c1cnc(F)c(-c2ncnc3cc(N4CCOCC4)ccc23)c1)c1nccs1 (stereo not drawn) [Example 180, [6-Fluoro-5-(7-morpholin-4-yl-quinazolin-4-yl)-pyridin-3-yl]thiazol-2-ylmethanol] | < 10 µM | 
23 | < 0.003 µM | 10 to 30 µM | Cn1cc(C(O)c2ccc(F)c(-c3ncnc4cc(N5CCOCC5)ccc34)c2)cn1 (stereo not drawn) [Example 191, [4-Fluoro-3-(7-morpholin-4-yl-quinazolin-4-yl)-phenyl]-(1-methyl-1H-pyrazol-4-yl)-methanol] | > 25 µM | 
24 | 0.007 to 0.03 µM | 10 to 30 µM | Cc1nc(C(O)c2cnc(F)c(-c3ncnc4cc(N5CCOCC5)ncc34)c2)sc1C (stereo not drawn) [Example 196, (4,5-Dimethyl-thiazol-2-yl)-[6-fluoro-5-(7-morpholin-4-yl-pyrido[4,3-d)-pyrimidin-4-yl)-pyridin-3-yl]-methanol] | > 25 µM | 
25 | 0.003 to 0.007 µM | 5 to 10 µM | CC(C)n1cc(C(O)c2ccc(F)c(-c3ncnc4cc(N5CCOCC5)ccc34)c2)cn1 (stereo not drawn) [Example 197, [4-Fluoro-3-(7-morpholin-4-yl-quinazolin-4-yl)-phenyl]-(1-isopropyl-1H-pyrazol-4-yl)-methanol] | < 10 µM | 
26 | 0.003 to 0.007 µM | 10 to 30 µM | Fc1ccc(C(OC(F)F)c2nccs2)cc1-c1ncnc2cc(N3CCOCC3)ccc12 (stereo not drawn) [Example 199, 4-[5-(Difluoro-methoxy-thiazol-2-ylmethyl)-2-fluoro-phenyl]-7-morpholin-4-yl-quinazoline] | < 10 µM | 
27 | 0.003 to 0.007 µM | 5 to 10 µM | Cc1nc(C(O)c2ccc(F)c(-c3ncnc4cc(N5CCOCC5)ccc34)c2)sc1CO (stereo not drawn) [Example 200, [4-Fluoro-3-(7-morpholin-4-yl-quinazolin-4-yl)-phenyl]-(5-hydroxy-methyl-4-methyl-thiazol-2-yl)-methanol] | > 25 µM | 
28 | > 0.03 µM | 10 to 30 µM | Cc1nc(C(O)c2cnc(F)c(-c3ncnc4cc(N5CCOCC5)ncc34)c2)sc1C (stereo not drawn) [Example 203, (4,5-Dimethyl-thiazol-2-yl)-[6-fluoro-5-(7-morpholin-4-yl-pyrido[4,3-d}-pyrimidin-4-yl)-pyridin-3-yl]-methanol] | > 25 µM | 
29 | 0.007 to 0.03 µM | 10 to 30 µM | Cc1nc(C(O)c2cc(-c3ncnc4cc(N5CCOCC5)ccc34)cnc2F)sc1C (stereo not drawn) [Example 205, (4,5-Dimethyl-thiazol-2-yl)-[2-fluoro-5-(7-morpholin-4-yl-quinazolin-4-yl)-pyridin-3-yl]-methanol] |  | Ki ([3]; Ki [Kv1.11 hERG], Table 5): 10 to 15 µM

From patent US9732094B2, “Arylquinazolines” (Merck Patent GmbH, priority 2013, dated 2017)
